From patent US7462614B2, “Imidazotriazine compounds” (Smithkline Beecham Corporation, priority 2003, dated 2008)

What was measured:
[1] = tested on: lung (H460) tumor cell line; experiment: Methylene Blue Growth Inhibition Assay, H460; format: cell-based; conditions: Homo sapiens, NCI-H460, 72 h; H460, 3 days; read-out: MeB Cell Line IC50
Excerpt: (§1) II. Methylene Blue Growth Inhibition Assay
(§2) Medium was removed by aspiration.

[2] = tested on: colon (RKO) tumor cell line; experiment: Methylene Blue Growth Inhibition Assay, RKO; format: cell-based; conditions: Homo sapiens, 72 h, 3 days, read-out: MeB Cell Line IC50
Excerpt: as §1, §2

[3] = tested on: prostate (PC3) tumor cell line; experiment: Methylene Blue Growth Inhibition Assay, PC3; format: cell-based; conditions: Homo sapiens, 72 h; PC3, 3 days; read-out: MeB Cell Line IC50
Excerpt: as §1, §2

[4] = tested on: colon (HCT116) tumor cell line; experiment: Methylene Blue Growth Inhibition Assay, HCT116; format: cell-based; conditions: Homo sapiens, HCT-116, 72 h; HCT116, 3 days; read-out: MeB Cell Line IC50
Excerpt: as §1, §2

[5] = tested on: Normal Human foreskin fibroblasts (HFF); experiment: Methylene Blue Growth Inhibition Assay, HFF; format: cell-based; conditions: 72 h, 3 days, read-out: MeB Cell Line IC50
Excerpt: as §1, §2

[6] = tested on: breast tumor (MCF7) cell line; experiment: Methylene Blue Growth Inhibition Assay, MCF7; format: cell-based; conditions: Homo sapiens, 72 h; MCF7, 3 days; read-out: MeB Cell Line IC50
Excerpt: as §1, §2

[7] = target: T1, truncated human PLK1 (kinase domain) (Homo sapiens, UniProt P53350); experiment: Assay for Inhibition of PLK1 (33P SPA enzyme activity); format: biochemical; conditions: 1 μM ATP, 2 nM enzyme; read-out: Ave pIC50 PLK Enzyme Inhibition (converted)
T1 construct: made in house; host or cells: baculovirus-infected T. ni insect cells
T1 sequence (P53350 21-346): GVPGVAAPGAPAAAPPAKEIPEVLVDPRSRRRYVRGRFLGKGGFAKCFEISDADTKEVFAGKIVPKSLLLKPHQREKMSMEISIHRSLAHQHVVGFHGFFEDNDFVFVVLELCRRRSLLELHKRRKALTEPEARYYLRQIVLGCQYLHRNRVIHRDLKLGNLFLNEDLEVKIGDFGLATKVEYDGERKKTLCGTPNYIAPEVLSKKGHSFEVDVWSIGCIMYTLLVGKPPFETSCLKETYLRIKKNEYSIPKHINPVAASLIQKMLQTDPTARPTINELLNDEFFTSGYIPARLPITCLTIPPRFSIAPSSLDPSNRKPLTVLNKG
Protocol: I. Assay for Inhibition of PLK1
A. Preparation of 6× N-Terminal His-Tagged PLK Kinase Domain
All procedures are performed at 4° C. Cells are lysed in 25 mM HEPES, 200 mM NaCl, 25 mM imidazole; pH 8.0. The homogenate is centrifuged at 14K rpm in a SLA-1500 rotor for 40 min and the supernatant filtered through a 1.2 micron filter. The supernatant is loaded onto a Nickel chelating Sepharose (Amersham Pharmacia) column and washed with 25 mM HEPES, 500 mM NaCl, 25 mM imidazole; pH 8.0. […] PLK is concentrated using a 10 kDa molecular weight cutoff membrane and then loaded onto a Superdex 75 gel filtration (Amersham BioSciences) column equilibrated in 25 mM HEPES, 1 mM DTT, 500 mM NaCl; pH 8.0. Fractions containing PLK are determined by SDS-PAGE. PLK is pooled, aliquoted and stored at […]. Samples are quality controlled using mass spectrometry.
B. Enzyme Activity±Inhibitors is Determined As Follows:
Compounds are added to the plate (1 μL in 100% DMSO).
Immediately upon addition of enzyme and thorough mixing, add 20 uL per well into 384-well white plates containing compounds and controls. […] The enzymatic reaction is stopped with 50 μl of bead mix (50 mM EDTA, 2 mg/ml Streptavidin-coated SPA beads in Standard Dulbecco's PBS (without Mg^2+and Ca^2+), and 60 μM ATP).

Row | IC50 [1] [µM] | IC50 [2] [µM] | IC50 [3] [µM] | IC50 [4] [µM] | IC50 [6] [µM] | IC50 [7] [µM] | Structure (SMILES) | IC50 [5] [µM]
1 | 1 to 10 | 1 to 10 | 1 to 10 | 1 to 10 | 1 to 10 | – | COc1cc(Nc2ncc3c(C)nc(-c4cccc(C(F)(F)F)c4)n3n2)cc(OC)c1OC [Example 5, 5-Methyl-7-[3-(trifluoromethyl)phenyl]-N-(3,4,5-trimethoxyphenyl)-imidazo[5,1-f][1,2,4]triazin-2-amine] | 1 to 10
2 | 10 to 30 | 10 to 30 | 10 to 30 | 10 to 30 | 10 to 30 | 0.1 to 10 | COc1cc(Nc2ncc3c(C)nc(-c4ccccc4O)n3n2)cc(OC)c1OC [Example 22, 2-{5-Methyl-2-[(3,4,5-trimethoxyphenyl)amino]imidazo[5,1-f][1,2,4]triazin-7-yl}phenol] | 10 to 30
3 | 10 to 30 | 10 to 30 | 10 to 30 | 10 to 30 | 10 to 30 | < 0.1 | COc1cc(Nc2ncc3c(C)nc(-c4cccc(C#N)c4)n3n2)cc(OC)c1OC [Example 8, 3-{5-Methyl-2-[(3,4,5-trimethoxyphenyl)amino]imidazo[5,1-f][1,2,4]triazin-7-yl}benzonitrile] | 10 to 30
4 | 10 to 30 | 10 to 30 | 10 to 30 | 10 to 30 | 10 to 30 | 0.1 to 10 | COc1cc(Nc2ncc3c(C)nc(-c4ccc(C(F)(F)F)cc4)n3n2)cc(OC)c1OC [Example 24, 5-Methyl-7-[4-(trifluoromethyl)phenyl]-N-(3,4,5-trimethoxy-phenyl)imidazo[5,1-f][1,2,4]triazin-2-amine] | 10 to 30
5 | 1 to 10 | 1 to 10 | 10 to 30 | 1 to 10 | 1 to 10 | < 0.1 | COc1cc(Nc2ncc3c(C)nc(-c4cccc(Br)c4)n3n2)cc(OC)c1OC [Example 9, 7-(3-Bromophenyl)-5-methyl-N-(3,4,5-trimethoxyphenyl)imidazo-[5,1-f][1,2,4]triazin-2-amine] | 10 to 30
6 | – | – | – | – | – | 0.1 to 10 | COc1cc(Nc2ncc3c(C)nc(-c4cccn4C)n3n2)cc(OC)c1OC [Example 34, 5-Methyl-7-(1-methyl-1H-pyrrol-2-yl)-N-(3,4,5-trimethoxyphenyl)-imidazo[5,1-f][1,2,4]triazin-2-amine] | –
7 | – | – | – | – | – | > 10 | COc1cc(Nc2ncc3c(C)nc(-c4ccccc4Nc4cccc(C(F)(F)F)c4)n3n2)cc(OC)c1OC [Example 39, 5-Methyl-7-(2-{[3-(trifluoromethyl)phenyl]amino}phenyl)-N-(3,4,5-trimethoxyphenyl)imidazo[5,1-f][1,2,4]triazin-2-amine] | –
8 | – | – | – | – | – | 0.1 to 10 | COc1ccc(Nc2ncc3c(C)nc(-c4cccc(C(F)(F)F)c4)n3n2)c(OC)c1 [Example 54, N-(2,4-Dimethoxyphenyl)-5-methyl-7-[3-(trifluoromethyl)phenyl]-imidazo[5,1-f][1,2,4]triazin-2-amine] | –
9 | – | – | – | – | – | 0.1 to 10 | COc1ccccc1-c1nc(C)c2cnc(Nc3cc(OC)c(OC)c(OC)c3)nn12 [Example 21, 7-(2-Methoxyphenyl)-5-methyl-N-(3,4,5-trimethoxyphenyl)-imidazo[5,1-f][1,2,4]triazin-2-amine] | –

More lines, now with the values behind:

Row | Structure (SMILES) | IC50 [1] [µM] | IC50 [2] [µM] | IC50 [3] [µM] | IC50 [4] [µM] | IC50 [6] [µM] | IC50 [7] [µM] | IC50 [5] [µM]
10 | CC(=O)Nc1ccc(Nc2ncc3c(C)nc(-c4cccc(C(F)(F)F)c4)n3n2)cc1 [Example 46, N-[4-({5-Methyl-7-[3-(trifluoromethyl)phenyl]imidazo[5,1-f][1,2,4]triazin-2-yl}amino)phenyl]acetamide] | 10 to 30 | 1 to 10 | 10 to 30 | 1 to 10 | 1 to 10 | < 0.1 | 10 to 30
11 | Cc1nc(-c2ccccc2)n2nc(Nc3cccc(CCS(=O)(=O)O)c3)ncc12 [Example 57, 2-{3-[(5-Methyl-7-phenylimidazo[5,1-f][1,2,4]triazin-2-yl)amino]phenyl}ethanesulfonic acid] | 10 to 30 | 10 to 30 | 10 to 30 | 10 to 30 | 10 to 30 | < 0.1 | 10 to 30
12 | COc1ccc(NC(C)=O)cc1Nc1ncc2c(C)nc(-c3cccc(C(F)(F)F)c3)n2n1 [Example 43, N-[4-Methoxy-3-({5-methyl-7-[3-(trifluoromethyl)phenyl]imidazo-[5,1-f][1,2,4]triazin-2-yl}amino)phenyl]acetamide] | 1 to 10 | 1 to 10 | 10 to 30 | 1 to 10 | 1 to 10 | < 0.1 | 10 to 30
13 | Cc1nc(-c2cccc(C(F)(F)F)c2)n2nc(Nc3cccc(CCO)c3)ncc12 [Example 44, 2-[3-({5-Methyl-7-[3-(trifluoromethyl)phenyl]imidazo[5,1-f][1,2,4]triazin-2-yl}amino)phenyl]ethanol] | 1 to 10 | 1 to 10 | 10 to 30 | 1 to 10 | 10 to 30 | < 0.1 | 10 to 30
14 | Cc1nc(-c2ccccc2)n2nc(Nc3cccc(CCO)c3)ncc12 [Example 19, 2-{3-[(5-Methyl-7-phenylimidazo[5,1-f][1,2,4]triazin-2-yl)amino]phenyl}ethanol] | 1 to 10 | 1 to 10 | 10 to 30 | 1 to 10 | 1 to 10 | < 0.1 | 10 to 30
15 | COc1cc(Nc2ncc3c(C)nc(-c4cccc(-c5cccc(C(=O)O)c5)c4)n3n2)cc(OC)c1OC [Example 59, 3′-{5-Methyl-2-[(3,4,5-trimethoxyphenyl)amino]imidazo[5,1-f][1,2,4]triazin-7-yl}-1,1′-biphenyl-3-carboxylic acid] | – | – | – | – | – | 0.1 to 10 | –
16 | COc1ccc(CCN)cc1Nc1ncc2c(C)nc(-c3cccc(C(F)(F)F)c3)n2n1 [Example 53, N-[5-(2-Aminoethyl)-2-methoxyphenyl]-5-methyl-7-[3-(trifluoromethyl)phenyl]imidazo[5,1-f][1,2,4]triazin-2-amine] | – | – | – | – | – | < 0.1 | –
17 | COc1ccc(Nc2ncc3c(C)nc(C4CCOCC4)n3n2)cc1 [Example 72, 5-Methyl-N-[4-(methyloxy)phenyl]-7-(tetrahydro-2H-pyran-4-yl)imidazo[5,1-f][1,2,4]triazin-2-amine] | – | – | – | – | – | 0.1 to 10 | –
18 | COc1cc(Nc2ncc3c(C)nc(-c4cc5ccccc5[nH]4)n3n2)cc(OC)c1OC [Example 32, 7-(1H-Indol-2-yl)-5-methyl-N-(3,4,5-trimethoxyphenyl)imidazo-[5,1-f][1,2,4]triazin-2-amine] | – | – | – | – | – | 0.1 to 10 | –
19 | COc1cc(Nc2ncc3c(C)nc(-c4cccc(Nc5ccc(N6CCOCC6)c(Cl)c5)c4)n3n2)cc(OC)c1OC [Example 66, 7-{3-[(3-Chloro-4-morpholin-4-ylphenyl)amino]phenyl}-5-methyl-N-(3,4,5-trimethoxyphenyl)imidazo[5,1-f][1,2,4]triazin-2-amine] | – | – | – | – | – | 0.1 to 10 | –
20 | COc1ccc(Nc2ncc3c(C)nc(-c4ccc(OC)cc4)n3n2)cc1 [Example 87, 5-Methyl-N,7-bis[4-(methyloxy)phenyl]imidazo[5,1-f][1,2,4]triazin-2-amine] | – | – | – | – | – | 0.1 to 10 | –
21 | COc1ccc(Nc2ncc3c(C)nc(-c4cccs4)n3n2)cc1 [Example 83, 5-Methyl-N-[4-(methyloxy)phenyl]-7-(2-thienyl)imidazo[5,1-f][1,2,4]triazin-2-amine] | – | – | – | – | – | 0.1 to 10 | –
22 | Cc1nc(-c2ccccc2)n2nc(Nc3ccc(OCCN4CCOCC4)cc3)ncc12 [Example 102, 5-Methyl-N-(4-{[2-(4-morpholinyl)ethyl]oxy}phenyl)-7-phenylimidazo[5,1-f][1,2,4]triazin-2-amine] | – | – | – | – | – | 0.1 to 10 | –
23 | Cc1nc(-c2ccccc2)n2nc(Nc3cccc(C(F)(F)F)c3)ncc12 [Example 26, 5-Methyl-7-phenyl-N-[3-(trifluoromethyl)phenyl]imidazo[5,1-f][1,2,4]triazin-2-amine] | – | – | – | – | – | 0.1 to 10 | –
24 | COc1cc(Nc2ncc3c(C)nc(-c4ccccc4)n3n2)cc(OC)c1 [Example 93, N-[3,5-Bis(methyloxy)phenyl]-5-methyl-7-phenylimidazo[5,1-f][1,2,4]triazin-2-amine] | – | – | – | – | – | 0.1 to 10 | –
25 | Cc1nc(-c2ccccc2)n2nc(Nc3ccc(OCCN(C)C)cc3)ncc12 [Example 96, N-(4-{[2-(Dimethylamino)ethyl]oxy}phenyl)-5-methyl-7-phenylimidazo[5.1-f][1,2,4]triazin-2-amine] | – | – | – | – | – | 0.1 to 10 | –
